Data as given in patent US20260256790A1, “DEBIO-0123 IN COMBINATION WITH TEMOZOLOMIDE AND RADIOTHERAPY FOR USE IN TREATING GLIOMA” (Debiopharm International S.A., priority 2023, published 2026).

Legend:
T98G GBM cell line = experiment: Colony formation with radiotherapy, T98G; type: cell-based; conditions: 0.1 μM to 5.0 μM, irradiated at 1, 2 and 4 Gy, p<0.0001
Experimental: (§1) GBM tumor cells (T98G, LN18, SNB-19 and U251) were grown as an adherent monolayer at 37° C. in a humidified atmosphere (5% CO2, 95% air). For experimental use, tumor cells were detached from culture flasks by a 5-minute treatment with trypsin-versene, in Hanks' medium without calcium or magnesium and neutralized by addition of complete culture medium. Cells were counted and viability assessed using a 0.25% trypan blue exclusion assay. All cell lines were appropriately seeded following the conditions for monolayer colony formation in 6-well plates (Ref #152795, Nunc, Dutscher) in 1.9 ml of cell culture medium, at 3 densities for evaluation of a proclonogenic effect. […]
(§2) Treatments were performed at 24 hours (D1) after seeding by addition of ×20 concentrated compound or vehicle solutions, to obtain final concentrations of 0.1 μM to 5.0 μM of Compound of formula (I) [referred to as CoF (I) in FIG. 3]. […] After 14 days of incubation, colonies were counted after being stained through incubation with 500 μl of a solution of water containing 0.05% (w/v) of methylene blue (Ref. M4159, Sigma) for 2 hours. Colonies were counted using a colony counter pen (Ref #045855, Dutscher, Brumath, France). The Surviving Fraction was calculated for each condition using the equations described below and plotted on a semi-logarithmic graph using the Linear-Quadratic model. […]

LN18 GBM cell line = experiment: Colony formation with radiotherapy, LN18; type: cell-based; conditions: 0.1 μM to 5.0 μM, irradiated at 1, 2 and 4 Gy, p<0.0001
Experimental: as §1, §2

U251 GBM cell line = experiment: Colony formation with radiotherapy, U251; type: cell-based; conditions: 0.1 μM to 5.0 μM, irradiated at 1, 2 and 4 Gy, p=0.6
Experimental: as §1, §2

U87-MG-luc GBM cell line = experiment: U87-MG-luc tumors implanted intracranially in mice, combination with temozolomide; type: in vivo; conditions: 28 day cycle
Experimental: Male athymic nude mice were injected into the cerebellum with 1×10^5 U87-MG-luc cells in Matrigel. Animals were imaged to monitor tumor establishment and growth throughout the study using an In Vivo Imaging System (IVIS) once weekly, detecting tumor bioluminescence (BLI) in photons. Once tumor establishment was confirmed, animals were randomly allocated into 8 treatment groups: vehicle (0.5% methycellulose, 1% Tween 80 P.O. and saline IV.), Compound of formula (I) [CoF (I)](formulated as a suspension in 0.5% methycellulose and 1% Tween 80) administered orally at 3 mg/kg, at 10 mg/kg or at 30 mg/kg once daily (QD) in monotherapy, temolozomide [TMZ] administered orally at 3 mg/kg once daily (QD) in monotherapy, over a 28 day cycle, and combination of TMZ+compound of formula (I) at each dose) (n=6 animals per group for monotherapy groups and n=8 animals per group for combination groups). In combination arms, Compound of formula (I) and was administered 2 hours prior to TMZ. During routine monitoring, the animals were checked for any effects of tumor growth and treatments on behavior such as mobility, food and water consumption, body weight gain/loss 3 times a week, eye/hair matting and any other abnormalities. Mortality and observed clinical signs were recorded for individual animals in detail.

SF188 cells = experiment: ATP-based cell viability assay (CellTiter-Glo 2.0) in control and ATRX-deficient SF188 cells
Experimental: SF188 cells were transfected with ATRX siRNA (siATRX_1 or siATRX_2) either individually (A) or as a pool (B and C) or control siRNA (siCon) and ATRX deficiency assessed by determining relative ATRX protein levels by western blotting. Control and ATRX-deficient SF188 cells were then treated with compound of formula (I) at a range of concentrations between 0 and 1.5 uM (FIG. 7A) and at 400 nM (FIG. 7B) and drug sensitivities were assessed via an ATP-based cell viability assay or in colony formation assay.
For cell viability assessment, SF188 cells were seeded in 96-well culture plates at 100-500 cells in 100 μl of culture media per well. After overnight incubation, 100 μl of culture media containing compound of formula (I) was added to each well at the desired final concentration. After 72 h, cell viability was assessed by CellTiter-Glo 2.0 according to the manufacturer's instructions. Each condition was tested in triplicate or quadruplicate, and the average viability is presented as a percentage of vehicle-treated cells. For colony formation assessment (FIG. 7C), SF188 cells were seeded on a 6-well plate at 100 cells per well in 1 ml of culture media. After overnight incubation, 1 ml of culture media containing compound of formula (I) was added to each well at the desired final concentrations up to 400 nM. At 10 days post-treatment, cell colonies were fixed with 70% ethanol for 30 min, washed with distilled water, and stained with Coomassie Blue. The number of colonies in each well was counted manually. Each colony consisted of >50 cells (corresponds to six doublings from a single cell). Colony-forming efficiency was determined by normalizing the colony numbers to the vehicle-treated cells.

[1] = Binding to plasma proteins; type: in vitro ADME; conditions: human
Experimental: Thus, the unbound (or free fraction) of the Study Drug and the N^32-desmethyl-Study drug are calculated.

Cc1cc(Nc2ncc3c(n2)N(C)CN(c2c(Cl)cccc2Cl)C3=O)ccc1C1CCN(C)CC1 [Compound of formula (I)]
Effect on radiotherapy (surviving fraction, colony formation) (T98G GBM cell line): significantly increased effect of radiotherapy
Effect on radiotherapy (surviving fraction, colony formation) (LN18 GBM cell line): significantly increased effect of radiotherapy
Effect on radiotherapy (surviving fraction, colony formation) (U251 GBM cell line): not significant
Anti-tumor activity (mean relative BLI) vs vehicle (U87-MG-luc GBM cell line; monotherapy 3 mg/kg oral QD): did not result in any significant anti-tumor activity
Anti-tumor activity (mean relative BLI) vs vehicle (U87-MG-luc GBM cell line; monotherapy 10 mg/kg oral QD): did not result in any significant anti-tumor activity
Anti-tumor activity (mean relative BLI) vs vehicle (U87-MG-luc GBM cell line; monotherapy 30 mg/kg oral QD, p=0.0133 on day 36): significantly smaller tumors than vehicle controls
Viability of SF188 cells (SF188 cells; 0 to 1.5 uM, 72 h, CellTiter-Glo 2.0): significantly reduced the viability of SF188 cells
Cell viability of ATRX-deficient SF188 cells (SF188 cells; 400 nM, p<0.01): significantly reduced
IC50 in SF188 cells with ATRX siRNA relative to control siRNA (SF188 cells; cell viability, 72 h): less than half of control siRNA
fraction unbound [1]: 0.083
